Reference: US6524999B2, “Growth inhibitors against algae and moss” (Kagome Kabushiki Kaisha, priority 2000, dated 2003)

Each molecule was assayed on algae (Chlamydomonas, Scenedesumus, Actinastrum, Ulothrix, Oscillatoria, Spirogyra, Pleurotaenium, Stichoccus and Chlorella) (assay: Hydroponic Culture Test No. 1: algae disks immersed in test nutrient solutions, visual examination of algae growth). Settings: Concentration 0.1 mg/liter; 7 days, 250° C., continuous light 2500 lux.
Assay type: cell-based, algae collected from hydroponic culture of tomato plants
Parameters: key: +: Algae growth was clearly observed; −: Algae growth was not observed
Description: Algae which grew in hydroponic culture of tomato plants inside a greenhouse provided with a hydroponic culture system were collected. A control nutrient solution was prepared by dissolving in 1 liter of water 0.625 g, 0.417 g, 0.042 g and 0.029 g respectively of Otsuka House Nos. 1, 2, 3 and 5 (tradenames of products by Otsuka Chemical Co., Ltd.) Identified in the collected algae were the following nine kinds: Chlamydomonas, Scenedesumus, Actinastrum, Ulothrix, Oscillatoria, Spirogyra, Pleurotaenium, Stichoccus and Chlorella.
The algae thus collected were filtered by using a filtering net with opening diameter of 53 μm. After the filtrate was buried inside the aforementioned control nutrient solution containing agar by 0.8 weight %, disks were cut out therefrom by means of a cork borer. Test nutrient solutions which were individually prepared by adding indoleacetic acid, 3-indole propionic acid or 3-(3-indolyl) butyric acid shown by Formula 1 at different concentrations to the control nutrient solution, and after these disks were immersed individually in these test nutrient solutions for 7 days at […] under a continuous illumination of light at 2500 lux, the growth of algae was visually examined.

SMILES	growth of algae (visual)
CC(CC(=O)O)c1c[nH]c2ccccc12 (stereo not drawn) [IBA, 3-(3-indolyl) butyric acid]	+
O=C(O)Cc1c[nH]c2ccccc12 [IAA, indoleacetic acid]	+
O=C(O)CCc1c[nH]c2ccccc12 [IPA, 3-indole propionic acid]	+

Same assay, conditions: Concentration 0.5 mg/liter; 7 days, 250° C., continuous light 2500 lux

SMILES	growth of algae (visual)
CC(CC(=O)O)c1c[nH]c2ccccc12 (stereo not drawn) [IBA, 3-(3-indolyl) butyric acid]	+
O=C(O)Cc1c[nH]c2ccccc12 [IAA, indoleacetic acid]	+
O=C(O)CCc1c[nH]c2ccccc12 [IPA, 3-indole propionic acid]	+

Same assay, conditions: Concentration 1 mg/liter; 7 days, 250° C., continuous light 2500 lux

SMILES	growth of algae (visual)
CC(CC(=O)O)c1c[nH]c2ccccc12 (stereo not drawn) [IBA, 3-(3-indolyl) butyric acid]	+
O=C(O)Cc1c[nH]c2ccccc12 [IAA, indoleacetic acid]	+
O=C(O)CCc1c[nH]c2ccccc12 [IPA, 3-indole propionic acid]	+

Same assay, conditions: Concentration 5 mg/liter; 7 days, 250° C., continuous light 2500 lux

SMILES	growth of algae (visual)
CC(CC(=O)O)c1c[nH]c2ccccc12 (stereo not drawn) [IBA, 3-(3-indolyl) butyric acid]	+
O=C(O)Cc1c[nH]c2ccccc12 [IAA, indoleacetic acid]	+
O=C(O)CCc1c[nH]c2ccccc12 [IPA, 3-indole propionic acid]	+

Same assay, conditions: Concentration 10 mg/liter; 7 days, 250° C., continuous light 2500 lux

SMILES	growth of algae (visual)
CC(CC(=O)O)c1c[nH]c2ccccc12 (stereo not drawn) [IBA, 3-(3-indolyl) butyric acid]	−
O=C(O)Cc1c[nH]c2ccccc12 [IAA, indoleacetic acid]	+
O=C(O)CCc1c[nH]c2ccccc12 [IPA, 3-indole propionic acid]	+

Same assay, conditions: Concentration 25 mg/liter; 7 days, 250° C., continuous light 2500 lux

SMILES	growth of algae (visual)
CC(CC(=O)O)c1c[nH]c2ccccc12 (stereo not drawn) [IBA, 3-(3-indolyl) butyric acid]	−
O=C(O)Cc1c[nH]c2ccccc12 [IAA, indoleacetic acid]	+
O=C(O)CCc1c[nH]c2ccccc12 [IPA, 3-indole propionic acid]	+

Same assay, conditions: Concentration 50 mg/liter; 7 days, 250° C., continuous light 2500 lux

SMILES	growth of algae (visual)
CC(CC(=O)O)c1c[nH]c2ccccc12 (stereo not drawn) [IBA, 3-(3-indolyl) butyric acid]	−
O=C(O)Cc1c[nH]c2ccccc12 [IAA, indoleacetic acid]	+
O=C(O)CCc1c[nH]c2ccccc12 [IPA, 3-indole propionic acid]	+
